What was measured:
human PGC-1α promoter = test: Screening of compounds using PGC-1α reporter (luciferase) C2C12 cell line; type: cell-based, mouse; settings: 10 μM, 48 hours, luciferase luminescence
Experimental: To screen for a compound activating PGC-1α gene expression in C2C12 myoblast, a PGC-1α reporter-expressing C2C12 cell line (hereinafter, referred to as ‘PGC-1α reporter cell line’ or ‘C2C12-PGC-1α cell line) is established. A vector expressing luciferase and dscGFP (destabilized Green Fluorescent Protein) under human PGC-1α promoter having a length of 1 kb is prepared, and this vector is inserted into lentivirus to transfect C2C12 cells. To select a cell line that genetically and stably expresses this vector, fluorescence emitted from green fluorescent protein (GFP) included in the vector is monitored. […] The expression level is measured by luminescence after addition of a luciferase substrate, thereby determining activation or inhibition of PGC-1α transcription by the compound.
The C2C12-PGC-1α reporter cell line prepared in Section 1 is used to screen a PGC-1α expression regulator from 2320 compounds provided by Korea chemical bank. […] 48 hours later, luminescence by luciferase is measured. in detail, cells are lysed in 10 μl of passive lysis buffer (50 mM Tris-HCl, 7.5 mM MgCl2, 750 mM NaCl, 5 mM EGTA, 1% Triton-x 100, 1 mM Na3VO4, 10 mM NaF, 0.1 mM PMSF (phenylmethanesulfonylfluoride), PI (protease inhibitor)) as a cell lysis buffer, and 50 μl of a luciferase substrate, luciferin was added thereto to allow enzymatic reaction. Then, luminescence is measured. […]

[1] = tested on: fibrosis-related genes Col1 A1, Col A3, TGF-β, Timp2; test: qRT-PCR of fibrosis-related genes in extensor digitorum longus muscles; type: in vivo, mouse; settings: 22-month-old mice, farnesol diet 4 months
Experimental: In muscle aging, fibrosis is closely related to a reduction in regenerative capacity and a reduction in quality of muscle. 22-month-old female mice (weighing 30 g) are fed with a control diet or a farnesol-containing diet for 4 months. Other feeding conditions are the same as described in Section 2 of Example 1. Thereafter, expressions of fibrosis-related genes, collagen 1 A1 (Col1 A1), collagen A3(Col A3), TGF-β, and Timp2 in extensor digitorum longus muscles are analyzed by qRT-PCR (quantitative Real Time-polymerase chain reaction) (primer sets of SEQ ID NOS: 1 and 2, 3 and 4, 5 and 6, 7 and 8 are used).

[2] = tested on: injured tibialis anterior muscles; test: Histological staining of cardiotoxin-injured tibialis anterior muscles of old animals; type: in vivo, mouse; settings: 25-month-old mice, farnesol diet 2 weeks, 4 days after CTX injury
Experimental: 25-month-old mice are fed with a control diet or a farnesol-containing diet for 2 weeks, and then 2 ul of 10 uM cardiotoxin (CTX) per body weight (g) is directly injected into the muscle to induce muscle injury. After 4 days, muscles are frozen and sectioned, followed by histological staining.
Hematoxylin and eosin (H&E) staining and sirus red staining are used in histological staining. Because muscle fibrosis […] and muscle regeneration is active at 4 days after muscle injury, effect of farnesol administration may be determined by histological staining. H&E staining is performed to examine structural recovery of injury, and sirus red staining is performed to examine the presence of fibrosis. […] That is, the control old animal has more thicker fibrosis regions located between the fibers than the experimental old animal treated with farnesol.

AMPK and p38 MAPK = test: Immunoblot of pAMPK and pp38 in farnesol-treated C2C12 myoblasts; type: cell-based; settings: 0.1 μM farnesol, 48 hours
Experimental: The C2C12 myoblasts are cultured in DMEM containing 2% horse serum and 0.1 μM farnesol dissolved in DMSO for 48 hours. A control group is cultured in the same manner as above, except that only DMSO is added. Other culture conditions and immunoblot procedure are the same as those described in Section 1 of Example 2. PGC-1α, pAMPK, pp38 and basal forms thereof are subjected to immunoblotting.

PARIS = PARIS protein and transcriptional levels in extensor digitorum longus muscles of old mouse; type: in vivo; settings: 24-month-old mouse, farnesol 5 weeks, vs old mouse without farnesol
[3] = tested on: PARIS-overexpressing C2C12 cells; test: Differentiation of PARIS-overexpressing myoblasts (Myh immunostaining); type: cell-based
Experimental: In C2C12 myoblasts, a PARIS gene expression vector (pCMV-Tag2A, Stratagene) is transiently expressed, followed by immunoblotting and immunostaining analysis. PARIS gene is a full length cDNA of human PARIS gene having a nucleotide sequence of SEQ ID NO: 9. […] After induction of differentiation of PARIS-overexpressing C2C12 cells for 3 days, immunostaining for Myh expression is performed. To induce the differentiation, cells are cultured in DMEM containing 2% horse serum and 0.1 μM farnesol dissolved in DMSO for 48 hours. A control group is cultured in the same manner as above, except that only DMSO is added. Other culture conditions are the same as those described in Section 1 of Example 2. As shown in panel (A) of FIG. 4F, PARIS overexpression decreases Myh-positive myotube formation, and reduced myotube formation is recovered by farnesol treatment. In (A) of FIG. 4F, Control represents myoblasts introduced with no PARIS gene expression vector, and ‘PARIS’ represents myoblasts introduced with a PARIS gene expression vector. In these experiments, blue color staining indicates nuclei, and red color staining indicates stained myh and also myotubes. The colors are not shown in panel (A) of FIG. 4F, but the difference in the relative amount of red color stained area is quantified in panel (B) of FIG. 4F, wherein pCMV represents the control myoblasts without a PARIS gene expression vector. […]

SDH enzyme activity = test: SDH staining of hind limb muscles, high fat diet model; type: in vivo, mouse; settings: high fat diet with 0.5% compound, 3 months
Excerpt: (§1) To prepare the PGC-1α-inhibited model, 3-month-old mouse (female, body weight of 20 g) is fed with high fat diet, in which fat is increased to 60%, compared to a negative control group, for 5 days (short-term effect) or 3 months (long-term effect). The negative control group is fed with a general diet. Farnesol is mixed in the high fat diet at a content of 0.5% (weight of farnesol/weight of diet). A positive control group is fed with high fat diet containing a type II diabetes drug, metformin at a content of 0.5% (weight of metformin/weight of diet). Mice are fed with the general diet, the high fat diet, and the high fat diet containing farnesol or metformin for 3 months, and then hind limbs are removed to analyze muscle differentiation and mitochondrial enzyme activity.

PARIS, PGC-1α [4] = test: Immunoprecipitation for PGC-1α expression and PARIS-farnesylation, short-term high fat diet; type: in vivo, mouse; settings: high fat diet with 0.5% compound, 5 days, gastrocnemius muscles
Excerpt: as §1
The effects of high fat diet and farnesol and metformin on PGC-1α induction by PARIS-farnesylation are evaluated. To analyze effect of short-term high fat diet, mice are fed with the above conditions for 5 days. Immunoblotting of PGC-1α and PARIS in gastrocnemius muscles of the mice is performed.
In this regard, PARIS-farnesylation is normalized to the immunoprecipitated PARIS expression level.

PARIS, PGC-1α [5] = test: Western blotting of hind limb muscles, high fat diet for 3 months; type: in vivo, mouse; settings: high fat diet with 0.5% compound
Excerpt: as §1

[6] = cited from earlier work

In the case of `CC(C)=CCC/C(C)=C/CC/C(C)=C/CO` [farnesol, (2E,6E)-3,7,11-trimethyldodeca-2,6,10-trien-1-ol], the “PGC-1α promoter activity relative to control group DMSO” value (human PGC-1α promoter) is reported as “greatly increasing”, the “expressions of fibrosis-related genes in EDL” value [1] is reported as “remarkably reduced” and the “percentage of blue and red stained muscle fibers (sirus red staining)” value [2] is reported as “remarkably reduced”. For the same compound, the “regenerative region and fibrotic area” value [2] was “a widespread regenerative region and a narrow fibrotic area”, the “size of muscle fibers stained red (H&E staining)” value [2] was “increased” and the pAMPK level (AMPK and p38 MAPK) was “does not affect”. The pp38 level (AMPK and p38 MAPK) was “does not affect”, the “protein expression level of PARIS in EDL” value (PARIS) was “remarkably decreased” and the “transcriptional level of PARIS in EDL” value (PARIS) was “remarkably decreased”. The “red color (Myh) stained area, control cells without PARIS vector” value ([3]; CONTROL (pCMV) C2C12, 0.1 μM farnesol vs DMSO) was “‘CONTROL’ cell treated with DMSO is smaller than that of ‘CONTROL’ cell treated with Farnesol”, the “Myh-positive myotube formation reduced by PARIS overexpression” value ([3]; PARIS-overexpressing C2C12, 0.1 μM farnesol) was “recovered” and the “percentage of muscle fibers showing increased SDH enzyme activity” value (SDH enzyme activity) was “increased”. For the same compound, the “reduction in PARIS-farnesylation by high fat diet” value (PARIS, PGC-1α [4]) was “inhibited”, the “reduction in PGC-1α expression by high fat diet” value (PARIS, PGC-1α [4]) was “inhibited” and the “decreased PGC-1α expression by high fat diet” value (PARIS, PGC-1α [5]) was “inhibited”. The “increased PARIS level by high fat diet” value (PARIS, PGC-1α [5]) was “inhibited” and the “lethal dose (LD) for 50% mouse mortality” value [6] was 8,765 mg per mouse body weight (kg).
